Source: ChEMBL document CHEMBL1136816, “Synthesis and evaluation of ether and halogenated derivatives of mannopeptimycin glycopeptide antibiotics” (2003)
In brackets after ≈: the same amount, converted by molar mass.

Experiments:
Format in all cases: functional
[1] = system: Staphylococcus aureus; assay: In vitro minimum inhibitory concentration against Staphylococcus aureus; 1-8
[2] = system: Enterococcus sp.; assay: In vitro minimum inhibitory concentration against Enterococcus species; 4-32
[3] = system: Streptococcus sp.; assay: In vitro minimum inhibitory concentration against Streptococcus species; 0.5-2
[4] = system: Staphylococcus aureus; assay: In vitro minimum inhibitory concentration against Staphylococcus aureus
[5] = system: Streptococcus sp.; assay: In vitro minimum inhibitory concentration against Streptococcus species
[6] = system: Enterococcus sp.; assay: In vitro minimum inhibitory concentration against Enterococcus species; 2-4
[7] = system: Staphylococcus aureus; assay: In vitro minimum inhibitory concentration against Staphylococcus aureus; 1-2
[8] = system: Streptococcus sp.; assay: In vitro minimum inhibitory concentration against Streptococcus species; 0.12-0.5
[9] = system: Staphylococcus aureus; assay: In vitro minimum inhibitory concentration against Staphylococcus aureus; 2-4
[10] = system: Staphylococcus aureus; assay: In vitro minimum inhibitory concentration against Staphylococcus aureus; 32-64
[11] = system: Enterococcus sp.; assay: In vitro minimum inhibitory concentration against Enterococcus species; 32->64
[12] = system: Streptococcus sp.; assay: In vitro minimum inhibitory concentration against Streptococcus species; 8-32

## CCOc1cc(COCC2O[C@H](O[C@H]3[C@H](O)[C@H](O)[C@@H](Oc4ccc(C[C@H]5NC(=O)[C@H]([C@@H](C)c6ccccc6)NC(=O)CNC(=O)[C@H](CO)NC(=O)[C@@H]([C@@H](O)[C@@H]6CN=C(N)N6[C@H]6O[C@H](CO)[C@@H](O)[C@H](O)[C@@H]6O)NC(=O)[C@H]([C@@H](O)[C@@H]6CN=C(N)N6)NC5=O)cc4)O[C@@H]3CO)[C@@H](O)[C@@H](O)[C@@H]2O)ccc1OC (stereo partly specified)
[1]
  MIC: 1 µg/mL (≈ 0.685 µM)
[2]
  MIC: 4 µg/mL (≈ 2.74 µM)
[3]
  MIC: 0.5 µg/mL (≈ 0.343 µM)

## COc1ccc(COC[C@H]2O[C@H](O[C@H]3[C@H](O)[C@H](O)[C@@H](Oc4ccc(C[C@H]5NC(=O)[C@H]([C@@H](C)c6ccccc6)NC(=O)CNC(=O)[C@H](CO)NC(=O)[C@@H]([C@@H](O)[C@@H]6CN=C(N)N6[C@H]6O[C@H](CO)[C@@H](O)[C@H](O)[C@@H]6O)NC(=O)[C@H]([C@@H](O)[C@@H]6CN=C(N)N6)NC5=O)cc4)O[C@@H]3CO)[C@@H](O)[C@@H](O)[C@@H]2O)cc1
[4]
  MIC: 4 µg/mL (≈ 2.83 µM)
[2]
  MIC: 4 µg/mL (≈ 2.83 µM)
[3]
  MIC: 0.5 µg/mL (≈ 0.353 µM)

## C[C@@H](c1ccccc1)[C@@H]1NC(=O)CNC(=O)[C@H](CO)NC(=O)[C@@H]([C@@H](O)[C@@H]2CN=C(N)N2[C@H]2O[C@H](CO)[C@@H](O)[C@H](O)[C@@H]2O)NC(=O)[C@H]([C@@H](O)[C@@H]2CN=C(N)N2)NC(=O)[C@@H](Cc2ccc(O[C@H]3O[C@H](CO)[C@@H](O[C@H]4O[C@H](COCC=C(c5ccccc5)c5ccccc5)[C@@H](O)[C@H](O)[C@@H]4O)[C@H](O)[C@@H]3O)cc2)NC1=O
[4]
  MIC: 2 µg/mL (≈ 1.34 µM)
[5]
  MIC: ≤ 0.06 µg/mL
[6]
  MIC: 2 µg/mL (≈ 1.34 µM)

## CCCOc1ccc(COC[C@H]2O[C@H](O[C@H]3[C@H](O)[C@H](O)[C@@H](Oc4ccc(C[C@H]5NC(=O)[C@H]([C@@H](C)c6ccccc6)NC(=O)CNC(=O)[C@H](CO)NC(=O)[C@@H]([C@@H](O)[C@@H]6CN=C(N)N6[C@H]6O[C@H](CO)[C@@H](O)[C@H](O)[C@@H]6O)NC(=O)[C@H]([C@@H](O)[C@@H]6CN=C(N)N6)NC5=O)cc4)O[C@@H]3CO)[C@@H](O)[C@@H](O)[C@@H]2O)cc1
[7]
  MIC: 1 µg/mL (≈ 0.693 µM)
[5]
  MIC: ≤ 0.06 µg/mL
[6]
  MIC: 2 µg/mL (≈ 1.39 µM)

## Cc1ccc(COC[C@H]2O[C@H](O[C@H]3[C@H](O)[C@H](O)[C@@H](Oc4ccc(C[C@H]5NC(=O)[C@H]([C@@H](C)c6ccccc6)NC(=O)CNC(=O)[C@H](CO)NC(=O)[C@@H]([C@@H](O)[C@@H]6CN=C(N)N6[C@H]6O[C@H](CO)[C@@H](O)[C@H](O)[C@@H]6O)NC(=O)[C@H]([C@@H](O)[C@@H]6CN=C(N)N6)NC5=O)cc4)O[C@@H]3CO)[C@@H](O)[C@@H](O)[C@@H]2O)cc1
[4]
  MIC: 2 µg/mL (≈ 1.43 µM)
[8]
  MIC: 0.12 µg/mL (≈ 0.0857 µM)
[6]
  MIC: 2 µg/mL (≈ 1.43 µM)

## C[C@@H](c1ccccc1)[C@@H]1NC(=O)CNC(=O)[C@H](CO)NC(=O)[C@@H]([C@@H](O)[C@@H]2CN=C(N)N2[C@H]2O[C@H](CO)[C@@H](O)[C@H](O)[C@@H]2O)NC(=O)[C@H]([C@@H](O)[C@@H]2CN=C(N)N2)NC(=O)[C@@H](Cc2ccc(O[C@H]3O[C@H](CO)[C@@H](O[C@H]4O[C@H](CO)[C@@H](OCC=C(c5ccccc5)c5ccccc5)[C@H](O)[C@@H]4O)[C@H](O)[C@@H]3O)cc2)NC1=O
[5]
  MIC: ≤ 0.06 µg/mL
[9]
  MIC: 2 µg/mL (≈ 1.34 µM)
[6]
  MIC: 2 µg/mL (≈ 1.34 µM)

## C[C@@H](c1ccccc1)[C@@H]1NC(=O)CNC(=O)[C@H](CO)NC(=O)[C@@H]([C@@H](O)[C@@H]2CN=C(N)N2[C@H]2O[C@H](CO)[C@@H](O)[C@H](O)[C@@H]2O)NC(=O)[C@H]([C@@H](O)[C@@H]2CN=C(N)N2)NC(=O)[C@@H](Cc2ccc(O[C@H]3O[C@H](CO)[C@@H](O[C@H]4O[C@H](COC/C=C/c5ccc(N(C)C)cc5)[C@@H](O)[C@H](O)[C@@H]4O)[C@H](O)[C@@H]3O)cc2)NC1=O
[10]
  MIC: 32 µg/mL (≈ 22 µM)
[11]
  MIC: 32 µg/mL (≈ 22 µM)
[12]
  MIC: 8 µg/mL (≈ 5.5 µM)
